Test [1] deals with Acinetobacter baylyi. In words: Antimicrobial activity against Acinetobacter baylyi ADP1 by microdilution method. Format: functional.
Test [2] has as its system Acinetobacter baylyi. The test is described as follows: Antimicrobial activity against Acinetobacter baylyi ADP1 harboring pMMCU1 plasmid expressing bla-OXA-24 gene by microdilution method. Format: functional.

MIC data for two compounds are collected here from ChEMBL document CHEMBL1671694, “OXA-24 carbapenemase gene flanked by XerC/XerD-like recombination sites in different plasmids from different Acinetobacter species isolated during a nosocomial outbreak” (2010).

In brackets after ≈: the same amount, converted by molar mass. Where only a bound is given, the exact number is not on record here.

Broadly, the MIC is the least concentration at which growth counts as inhibited. Read a low MIC as inhibition by little substance.

Consider `C[C@@H](O)[C@H]1C(=O)N2C(C(=O)O)=C(SCCNC=N)C[C@H]12` [IMIPENEM ANHYDROUS], for which the MIC is 0.094 µg/mL (≈ 0.314 µM) in test [1] and over 32 µg/mL in test [2].

As to `C[C@@H](O)[C@H]1C(=O)N2C(C(=O)O)=C(S[C@@H]3CN[C@H](C(=O)N(C)C)C3)[C@H](C)[C@H]12` [MEROPENEM], the MIC is 0.25 µg/mL (≈ 0.652 µM) in test [1] and over 32 µg/mL in test [2].
